According to patent publication US9980943B2, “Methods of treating muscular dystrophy” (BOARD OF REGENTS OF THE NEVADA SYSTEM OF HIGHER EDUCATION, …, priority 2013, dated 2018):

Columns and labels:
Type in all cases: cell-based, mouse
[1] = system: α7 integrin (LacZ reporter in α7+/LacZ myotubes); assay: Myotube α7 integrin FDG assay (Burkin assay in myotubes, 96-well); settings: myotubes
[2] = system: α7 integrin (LacZ reporter in α7βgal+/− myoblasts); assay: Myoblast α7+/LacZ integrin FDG assay (Burkin assay in myoblasts, 96-well); settings: α7+/LacZ myoblasts, 96-well
[3] = system: β-galactosidase in CMV-LacZ C2C12 myotubes; assay: CMV-LacZ secondary screen in C2C12 myotubes (β-Gal stabilizing assay); settings: C2C12 CMV-LacZ myotubes, fold relative to DMSO
Summary of the method: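 CMV-LacZ C2C12 line (clonal, FDG-screened); myoblasts/myotubes dosed 0.5–40 μM (0.5, 1, 5, 10, 20, 40 μM); n=2 per point; β-gal stabilization read-out.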

[4] = system: β-galactosidase in CMV-LacZ C2C12 myoblasts; assay: CMV-LacZ secondary screen in C2C12 myoblasts (β-Gal stabilizing assay); settings: CMV-LacZ C2C12 myoblasts
Summary of the method: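 Dose-response runs at 0.5–40 μM (0.5, 1, 5, 10, 20, 40 μM; N=2 per point) used a clonal C2C12 line carrying CMV-LacZ. Cells were assayed as myoblasts or as differentiated myotubes, and β-galactosidase levels were read with the FDG fluorogenic substrate.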

Compound	Burkin Assay in Myotubes, α7 integrin LacZ reporter signal relative to DMSO ([1]; 0.5 uM)	Burkin Assay in Myotubes, α7 integrin LacZ reporter signal relative to DMSO ([1]; 1 uM)	Burkin Assay in Myotubes, α7 integrin LacZ reporter signal relative to DMSO ([1]; 5 uM)	Burkin Assay in Myotubes, α7 integrin LacZ reporter signal relative to DMSO ([1]; 10 uM)	Burkin Assay in Myotubes, α7 integrin LacZ reporter signal relative to DMSO ([1]; 20 uM)	Burkin Assay in Myotubes, α7 integrin LacZ reporter signal relative to DMSO ([1]; 40 uM)	Burkin Assay in Myoblasts, signal relative to DMSO ([2]; 0.5 uM)	Burkin Assay in Myoblasts, signal relative to DMSO ([2]; 1 uM)	Burkin Assay in Myoblasts, signal relative to DMSO ([2]; 5 uM)	Burkin Assay in Myoblasts, signal relative to DMSO ([2]; 10 uM)	Burkin Assay in Myoblasts, signal relative to DMSO ([2]; 20 uM)	Burkin Assay in Myoblasts, signal relative to DMSO ([2]; 40 uM)	CMV-LACZ in Myotubes, signal relative to DMSO ([3]; 0.5 uM)	CMV-LACZ in Myotubes, signal relative to DMSO ([3]; 1 uM)	CMV-LACZ in Myotubes, signal relative to DMSO ([3]; 5 uM)	CMV-LACZ in Myotubes, signal relative to DMSO ([3]; 10 uM)	CMV-LACZ in Myotubes, signal relative to DMSO ([3]; 20 uM)	CMV-LACZ in Myotubes, signal relative to DMSO ([3]; 40 uM)	CMV-LACZ in Myoblasts (β-galactosidase activity relative to DMSO) ([4]; 0.5 uM)	CMV-LACZ in Myoblasts (β-galactosidase activity relative to DMSO) ([4]; 1 uM)	also measured
Cc1cccc2c(N=Nc3ccc(S(=O)(=O)Nc4ccc(Cl)cc4)cc3[N+](=O)[O-])c(O)[nH]c12 [MLS000393762-01]	0.9402	0.925	0.9795	1.007	0.7705	0.7046	0.9738	0.9428	0.7799	0.6957	0.5961	0.4696	0.8653	0.9326	1.0005	1.0049	1.0800	1.0578	0.9560	0.9351	CMV-LACZ in Myoblasts (β-galactosidase activity relative to DMSO) ([4]; 5 uM): 1.0114; CMV-LACZ in Myoblasts (β-galactosidase activity relative to DMSO) ([4]; 10 uM): 1.0198; CMV-LACZ in Myoblasts (β-galactosidase activity relative to DMSO) ([4]; 20 uM): 0.3793; CMV-LACZ in Myoblasts (β-galactosidase activity relative to DMSO) ([4]; 40 uM): 0.4467
Cc1ccc(NS(=O)(=O)c2cccc(C(=O)O)c2)cc1S(=O)(=O)N1CCOCC1 [MLS000393966-01]	0.8547	0.8436	1.304	0.9546	1.233	1.015	0.9495	0.9626	1.793	1.076	0.9904	0.965	0.9358	1.3516	0.8958	1.1877	1.0378	1.1167	0.9249	1.0625	CMV-LACZ in Myoblasts (β-galactosidase activity relative to DMSO) ([4]; 5 uM): 1.1744; CMV-LACZ in Myoblasts (β-galactosidase activity relative to DMSO) ([4]; 10 uM): 0.8087; CMV-LACZ in Myoblasts (β-galactosidase activity relative to DMSO) ([4]; 20 uM): 1.0411; CMV-LACZ in Myoblasts (β-galactosidase activity relative to DMSO) ([4]; 40 uM): 0.9156
CCOc1ccc(Br)cc1S(=O)(=O)Nc1ccc(C(=O)Nc2ccccc2OC)cc1 [MLS000418650-01]	1.086	1.004	1.032	0.9654	0.7581	0.7593	0.9156	1.069	1.13	0.9633	0.9104	0.9445	1.0086	1.2819	1.0198	1.1746	1.1180	1.2260	0.9237	0.9533	CMV-LACZ in Myoblasts (β-galactosidase activity relative to DMSO) ([4]; 5 uM): 1.0080; CMV-LACZ in Myoblasts (β-galactosidase activity relative to DMSO) ([4]; 10 uM): 0.8344; CMV-LACZ in Myoblasts (β-galactosidase activity relative to DMSO) ([4]; 20 uM): 1.1523; CMV-LACZ in Myoblasts (β-galactosidase activity relative to DMSO) ([4]; 40 uM): 1.1323
Cc1[nH]c2ccc(F)cc2c1CCN(Cc1ccco1)C(=S)NC(C)(C)C [MLS000419286-01]	0.9511	0.8124	0.879	0.948	0.457	0.193	1.166	1.002	0.9174	0.8951	0.7945	0.7199	0.9990	1.1867	1.0268	1.1581	0.8530	0.7830	0.9960	0.7960	CMV-LACZ in Myoblasts (β-galactosidase activity relative to DMSO) ([4]; 5 uM): 0.9701; CMV-LACZ in Myoblasts (β-galactosidase activity relative to DMSO) ([4]; 10 uM): 0.8022; CMV-LACZ in Myoblasts (β-galactosidase activity relative to DMSO) ([4]; 20 uM): 0.9368; CMV-LACZ in Myoblasts (β-galactosidase activity relative to DMSO) ([4]; 40 uM): 0.6295
Cc1nnc(SCC(=O)c2ccc(Br)cc2)s1 [MLS000420298-01]	0.9538	1.0464	0.9453	0.9005	0.91	1.006	1.379	1.243	1.083	1.1	1.111	0.9235	0.9573	0.8527	1.0338	1.2388	1.3660	1.1250	1.2808	0.9383	CMV-LACZ in Myoblasts (β-galactosidase activity relative to DMSO) ([4]; 5 uM): 0.8414; CMV-LACZ in Myoblasts (β-galactosidase activity relative to DMSO) ([4]; 10 uM): 1.0482; CMV-LACZ in Myoblasts (β-galactosidase activity relative to DMSO) ([4]; 20 uM): 0.9807; CMV-LACZ in Myoblasts (β-galactosidase activity relative to DMSO) ([4]; 40 uM): 1.1930
CSc1ccc(S(=O)(=O)NCc2ccccc2)cc1 [MLS000531177-01]	0.8259	0.7329	1.051	1.163	0.8007	0.9005	0.8826	0.923	1.067	1.625	1.014	0.8008	1.1989	1.0411	0.8757	0.8917	0.9244	1.1522	1.0785	1.5065	CMV-LACZ in Myoblasts (β-galactosidase activity relative to DMSO) ([4]; 5 uM): 1.0150; CMV-LACZ in Myoblasts (β-galactosidase activity relative to DMSO) ([4]; 10 uM): 0.8958; CMV-LACZ in Myoblasts (β-galactosidase activity relative to DMSO) ([4]; 20 uM): 1.2952; CMV-LACZ in Myoblasts (β-galactosidase activity relative to DMSO) ([4]; 40 uM): 0.9422
